Assay results taken from patent publication EP4759807A1, “PROTEOLYSIS TARGETING CHIMERA COMPOUND FOR DEGRADING IRAK4 AND USE THEREOF” (Shenzhen Zhongge Biological Technology Co., Ltd., priority 2023, dated 2025).

Key:
[1] = test system: IFN-γ, IL-1β, IL-6, IL-10, IL-12p70, TNF-α and IL-23 secretion by hPBMC; assay: Inhibition of LPS-induced secretion of multiple cytokines by human-derived PBMC (MSD detection); type: cell-based; details: 8 h compound, then LPS 2 ng/mL 16 h; compared with KT474
Description: Experiment materials: Human-derived peripheral blood mononuclear cells (hPBMC) were provided by Hemacare Donor Center.
Thawing and plating PBMCs: The frozen PBMC was removed from liquid nitrogen, thawed in a 37°C water bath kettle, then resuspended with 10 mL of complete medium, and centrifuged at 350 g at room temperature for 5 min, and the supernatant was discarded. The cells were resuspended with 5 mL of complete medium, and the cells were counted. The cells were diluted to 2 × 10^6/mL based on the counting results, and 0.1 mL (2 × 10^5 cells) was added to each well of the 96-well plate.
After uniform mixing, incubation was performed in an incubator at 37°C and 5% CO2 for 8 h.
LPS induction: After 8 h, 50 µL of LPS was added to all wells to a final concentration of 2 ng/mL. After uniform mixing, incubation was further performed in an incubator at 37°C and 5% CO2 for 16 h. […]
MSD detection: The buffer was added to the freeze-dried human inflammatory factor standard mixture to prepare a highest concentration standard (standard 1), and then serial 4-fold dilutions were performed and a standard with a concentration of 0 was prepared (a total of 10 concentrations). […] The plate was washed 3 times, and then 150 µL of 2× reading buffer was added and the plate was read using an MSD instrument.

CYP2C9 = target: T1, CYP2C9 (Homo sapiens, UniProt P11712); assay: Inhibitory effect on human liver microsome CYP450 enzyme; type: in vitro ADME; details: human liver microsomes, substrate Diclofenac Sodium
T1 construct: 0.05 mg/mL liver microsomes (BioIVT, IHG) phosphate buffer solution; tissue BioIVT IHG; host or cells: human liver microsomes
Description: (§1) In this experiment, the compound, liver microsomes and different CYP isoform enzyme substrates were incubated in a 37°C water bath, the amount of substrate metabolites generated was measured, and the inhibitory effect of the compound of the present disclosure on CYP enzyme was evaluated based on the IC50 value.
(§2) i. The compound was diluted with DMSO (Aladdin, catalog number: D103273-500ml) to concentrations of 0, 0.02, 0.06, 0.2, 0.6, 2 and 6 mM. The positive reference inhibitors for each CYP isoform and their concentrations are shown in Table 4 Table 4 Positive reference inhibitors for CYP isoform enzymes and their concentrations
(§3) ii. Phosphate buffer (sigma: V900050-500G) was used to formulate the substrate solution for each CYP isoform enzyme. Table 5 The substrate and the concentration thereof for CYP isoform enzyme
(§4) iii. Sample incubation. 1 µL of each concentration of the compound and positive reference inhibitor for CYP isoform enzyme were taken and placed into a 96-deep well plate (A-gen: P-1.0-RD-96-S), and 169 µL of 0.05 mg/mL liver microsomes (BioIVT, IHG) phosphate buffer solution (using 0.2 mg/mL liver microsomes for CYP2C19) was added. After uniform mixing, the plate was placed in a 37°C water bath (Shanghai Jinghong Experimental Equipment Co., Ltd., DK-500) with shaking for pre-incubation for 15 min. 10 µL of substrate (adding 1 µL of substrate for CYP3A4-Testosterone) and 20 µL of 10 mM NADPH phosphate buffer solution (MCE, HYF003/CS-4998) were added. After uniform mixing, the plate was incubated in a water bath with shaking for the following time: CYP1A2: 20 min, CYP2C9: 10 min, CYP2C19: 10 min, CYP2D6: 10 min, CYP3A4-Testosterone: 10 min, CYP3A4-Midazolam: 5 min. 400 µL of glacial acetonitrile/methanol (v/v, 1:1) containing an internal standard (500 nM tolbutamide, 5 nM terfenadine) was added to terminate the reaction. After centrifugation at 4000 rpm at 4°C for 40 min, the supernatant was taken and diluted with pure water according to the response of the metabolite of the substrate, and then UPLC-MS/MS (Sciex, Q-Trap 4500) was used for detection to obtain the peak area. The C18 chromatographic column was Kinetex 2.6u C18 100A (50 mm*3 mm).
(§5) The inhibitory effect of the compound on each P450 enzyme in human liver microsomes was calculated as the percentage of reduced metabolite formation compared with the non-inhibitory control (i.e. blank DMSO). The IC50 value of the compound for each P450 enzyme in human liver microsomes was calculated with the logarithm of the remaining activity and the inhibitor concentration using Graphpad Prism software. The calculation equation was as follows: Peak area ratio = compound peak area / internal standard peak area [formula] [formula]
(§6) In Graphpad Prism software, the IC50 value was calculated using the standard four-parameter curve fitting algorithm.

CYP2C19 = target: T2, CYP2C19 (Homo sapiens, UniProt P33261); assay: as above; type: in vitro ADME; details: human liver microsomes, substrate Mephenytoin
T2 construct: (using 0.2 mg/mL liver microsomes for CYP2C19); tissue BioIVT IHG; host or cells: human liver microsomes
Description: as §1, §2, §3, §4, §5, §6

CYP1A2 = target: T3, CYP1A2 (Homo sapiens, UniProt P05177); assay: as above; type: in vitro ADME; details: human liver microsomes, substrate Phenacetin
T3 construct: 0.05 mg/mL liver microsomes (BioIVT, IHG) phosphate buffer solution; tissue BioIVT IHG; host or cells: human liver microsomes
T3 sequence (P05177 1-516): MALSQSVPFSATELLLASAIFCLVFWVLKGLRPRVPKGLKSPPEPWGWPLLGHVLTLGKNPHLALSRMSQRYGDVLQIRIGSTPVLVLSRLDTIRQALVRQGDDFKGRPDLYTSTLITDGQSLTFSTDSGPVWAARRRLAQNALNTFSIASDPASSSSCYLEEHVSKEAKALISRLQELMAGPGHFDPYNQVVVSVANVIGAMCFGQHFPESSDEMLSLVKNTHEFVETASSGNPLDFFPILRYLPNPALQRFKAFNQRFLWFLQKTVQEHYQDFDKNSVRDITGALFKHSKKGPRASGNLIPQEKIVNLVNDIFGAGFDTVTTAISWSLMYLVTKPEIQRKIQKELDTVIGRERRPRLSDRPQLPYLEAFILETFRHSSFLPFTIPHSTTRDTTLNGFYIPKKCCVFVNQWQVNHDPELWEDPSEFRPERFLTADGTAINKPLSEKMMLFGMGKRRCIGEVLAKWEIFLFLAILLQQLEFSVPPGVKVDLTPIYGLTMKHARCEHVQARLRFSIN
Description: as §1, §2, §3, §4, §5, §6

T2 sequence (P33261 whole entry): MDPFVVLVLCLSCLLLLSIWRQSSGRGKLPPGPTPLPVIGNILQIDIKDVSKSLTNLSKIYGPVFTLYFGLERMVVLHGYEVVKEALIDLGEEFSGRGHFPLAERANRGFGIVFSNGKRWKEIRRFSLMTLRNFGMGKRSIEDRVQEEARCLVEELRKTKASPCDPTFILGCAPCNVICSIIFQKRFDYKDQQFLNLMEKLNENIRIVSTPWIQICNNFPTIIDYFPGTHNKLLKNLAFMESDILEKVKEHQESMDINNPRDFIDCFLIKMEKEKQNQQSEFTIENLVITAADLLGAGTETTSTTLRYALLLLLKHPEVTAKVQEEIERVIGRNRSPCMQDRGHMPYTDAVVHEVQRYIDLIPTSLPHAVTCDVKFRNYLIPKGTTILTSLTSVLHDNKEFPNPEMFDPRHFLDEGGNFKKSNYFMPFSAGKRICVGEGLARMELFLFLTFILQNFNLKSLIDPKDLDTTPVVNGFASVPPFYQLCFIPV
T1 sequence (P11712 whole entry): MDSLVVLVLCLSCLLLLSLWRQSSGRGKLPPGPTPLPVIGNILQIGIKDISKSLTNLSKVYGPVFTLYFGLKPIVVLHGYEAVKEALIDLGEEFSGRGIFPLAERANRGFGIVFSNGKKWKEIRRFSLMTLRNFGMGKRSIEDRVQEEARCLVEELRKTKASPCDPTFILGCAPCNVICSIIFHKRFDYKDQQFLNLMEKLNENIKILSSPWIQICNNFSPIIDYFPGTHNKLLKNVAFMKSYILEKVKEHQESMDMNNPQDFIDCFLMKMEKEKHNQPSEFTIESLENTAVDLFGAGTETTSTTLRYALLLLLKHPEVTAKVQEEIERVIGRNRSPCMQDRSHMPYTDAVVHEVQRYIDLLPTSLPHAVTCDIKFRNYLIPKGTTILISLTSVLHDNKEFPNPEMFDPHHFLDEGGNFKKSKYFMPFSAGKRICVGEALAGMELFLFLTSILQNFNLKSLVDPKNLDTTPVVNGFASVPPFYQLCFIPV

With `Cn1c(=O)n(C2CCC(=O)NC2=O)c2cccc(N3CCC(N4CCN(C[C@H]5CC[C@H](n6cc(-n7cc(-c8cnn9ccc(N%10CCC[C@H](O)C%10)nc89)nn7)c(C(F)F)n6)CC5)CC4)CC3)c21` (stereo partly shown) [Example 146] the “ability to inhibit the secretion of multiple cytokines by human-derived PBMC” value [1] was “significantly better than that of positive reference KT474”, the IC50 (CYP2C9) was > 30 µM and the IC50 (CYP2C19) was 18.4 µM. For the same compound, the IC50 (CYP1A2) was > 30 µM.
